pKi: −log10 of the molar value.

In this assay the target is T1, full length human recombinant glucocorticoid receptor (Homo sapiens, UniProt P04150).
T1 construct: partially purified full length human recombinant glucocorticoid receptor; purchased Panvera/Invitrogen PV4302
T1 sequence (P04150 1-777): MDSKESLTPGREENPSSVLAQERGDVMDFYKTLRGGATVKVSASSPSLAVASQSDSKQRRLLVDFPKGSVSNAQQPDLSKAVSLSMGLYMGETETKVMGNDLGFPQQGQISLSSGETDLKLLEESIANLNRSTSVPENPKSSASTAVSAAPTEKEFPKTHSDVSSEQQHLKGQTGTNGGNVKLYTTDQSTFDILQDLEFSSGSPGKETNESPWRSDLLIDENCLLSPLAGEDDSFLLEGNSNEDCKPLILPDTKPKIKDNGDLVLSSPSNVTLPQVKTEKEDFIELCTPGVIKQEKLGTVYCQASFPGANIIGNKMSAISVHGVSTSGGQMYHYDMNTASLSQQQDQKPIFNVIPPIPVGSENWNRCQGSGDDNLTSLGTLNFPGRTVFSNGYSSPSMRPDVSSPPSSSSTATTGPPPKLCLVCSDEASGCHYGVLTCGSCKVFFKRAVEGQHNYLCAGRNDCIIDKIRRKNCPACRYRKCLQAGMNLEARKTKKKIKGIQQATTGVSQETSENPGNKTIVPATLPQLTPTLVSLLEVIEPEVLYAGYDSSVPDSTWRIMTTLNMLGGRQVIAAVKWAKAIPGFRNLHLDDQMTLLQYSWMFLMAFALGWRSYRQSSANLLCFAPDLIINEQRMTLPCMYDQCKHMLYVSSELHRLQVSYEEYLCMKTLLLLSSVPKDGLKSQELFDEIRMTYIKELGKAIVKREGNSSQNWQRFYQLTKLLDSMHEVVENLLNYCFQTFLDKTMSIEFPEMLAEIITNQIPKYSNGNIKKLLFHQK
Briefly: Glucocorticoid Receptor Binding Assay (fluorescence polarization competitor assay, Fluormone GS Far Red tracer). The procedure: Glucocorticoid Receptor Binding Assay
The ability of the substances to bind to the glucocorticoid receptor was determined with the help of a commercial Glucocorticoid Receptor Competitor Assay far red kit provided by Panvera/Invitrogen (PV4302). This kit is used as provided by the supplier. It contains some partially purified full length human recombinant glucocorticoid receptor, a coactivator related GR stabilizing peptide, a tight-binding fluorescent GR ligand Fluormone™ GS Far Red as labeled tracer and a screening buffer. All reagents are prepared and the assay is run according to the recommendations of the kit manufacturer.
Briefly, the GR stabilizing peptide and the human recombinant glucocorticoid receptor are both diluted with the screening buffer (pH 7.4) and are gently mixed (no vortexing) just before the assay and kept on ice until use. The fluorescent-labeled ligand is also diluted with the screening buffer just before the assay and kept on ice until use. The substances to test are pre-diluted in pure DMSO then some water is added to get an intermediate 4.2% DMSO stock solution. Ten microliter of the intermediate stock solution is gently mixed with 5 μl of diluted fluorescent-labeled ligand and 5 μl of diluted human recombinant glucocorticoid receptor in a 384-well plate (low volume, ultraclear, glass plate from Greiner ref 788896). The plate is centrifuged, sealed and incubated for 3 hours at 22° C. in the dark. The polarized fluorescence is measured with a Zeiss-HTS reader or any equivalent equipment (610-660 nm).
All compounds were tested to determine IC50 in a serial dilution experiment. The concentration at which 50% inhibition of the fluorescent GR ligand Fluormone™ GS Far Red is obtained (the IC50) is determined after fitting with a sigmoidal dose-response model of a plot of the logarithm of the concentration versus percent inhibition measured for the different concentrations. Ki's were calculated from IC50 based on Cheng-Prusoff equation (Cheng, Y, Prusoff, W H (1973) Biochem Pharmacol 22, 3099-3108): Ki=IC50/[1+D/Kd] wherein D is the concentration of the fluorescent ligand and Kd is the binding constant for the fluorescent ligand binding to the receptor under the conditions used in the competition experiment.
Turning to `COC(=O)c1ccc(Oc2ccc([C@@H](C)[C@@](O)(c3ccc(=O)n(C)c3)C(F)(F)F)c(Cl)c2)cc1` (relative stereo) [Example 151, 4-{3-Chloro-4-[3,3,3-trifluoro-2-hydroxy-1-methyl-2(1-methyl-6-oxo-1,6-dihydro-pyridin-3-yl)-propyl]-phenoxy}-benzoic acid methyl ester], the pKi (commonly the Ki on a negative log10 scale, so that one unit is a factor of ten) was 8.62. Next, `C[C@H](c1ccc(Oc2ccc(C(=O)O)cc2F)cc1Cl)[C@@](O)(c1ccc(=O)n(C)c1)C(F)(F)F` (relative stereo) [Example 156, 4-{3-Chloro-4-[3,3,3-trifluoro-2-hydroxy-1-methyl-2-(1-methyl-6-oxo-1,6-dihydro-pyridin-3-yl)-propyl]-phenoxy}-3-fluoro-benzoic acid]: 9.05. Next, `C[C@H](c1ccc(Oc2ccc(C(=O)O)cc2Cl)cc1Cl)[C@@](O)(c1ccc(=O)n(C)c1)C(F)(F)F` (relative stereo) [Example 157, 3-Chloro-4-{3-chloro-4-[3,3,3-trifluoro-2-hydroxy-1-methyl-2(1-methyl-6-oxo-1,6-dihydro-pyridin-3-yl)-propyl]-phenoxy}-benzoic acid]: 9.15. Consider `CCOC(=O)COc1ccc(Oc2ccc([C@@H](C)[C@@](O)(c3ccc(=O)n(C)c3)C(F)(F)F)c(Cl)c2)cc1` (relative stereo) [Example 159, (4-{3-Chloro-4-[3,3,3-trifluoro-2-hydroxy-1-methyl-2-(1-methyl-6-oxo-1,6-dihydro-pyridin-3-yl)-propyl]-phenoxy}-phenoxy)-acetic acid ethyl ester], for which the pKi is 8.70. Under `COC(=O)c1cnc(Oc2ccc([C@@H](C)[C@@](O)(c3ccc(=O)n(C)c3)C(F)(F)F)c(Cl)c2)cc1C(F)(F)F` (relative stereo) [Example 163, 6-{3-Chloro-4-[3,3,3-trifluoro-2-hydroxy-1-methyl-2-(1-methyl-6-oxo-1,6-dihydro-pyridin-3-yl)-propyl]-phenoxy}-4-trifluoromethyl-nicotinic acid methyl ester] stands 7.62. Next, `C[C@H](c1ccc(-c2ccc(F)c(C(=O)O)c2)cc1Cl)[C@@](O)(c1ccc(=O)n(C)c1)C(F)(F)F` (relative stereo) [Example 165, 3′-Chloro-4-fluoro-4′-[3,3,3-trifluoro-2-hydroxy-1-methyl-2-(1-methyl-6-oxo-1,6-dihydro-pyridin-3-yl)-propyl]-biphenyl-3-carboxylic acid]: 7.55; `C[C@@H](c1ccc(-c2ccc(CC(=O)O)cc2)cc1Cl)[C@](O)(c1ccc(=O)n(C)c1)C(F)(F)F` (relative stereo) [Example 171, {3′-Chloro-4′-[3,3,3-trifluoro-2-hydroxy-1-methyl-2-(1-methyl-6-oxo-1,6-dihydro-pyridin-3-yl)-propyl]-biphenyl-4-yl}-acetic acid]: 7.10.

Consider `C[C@@H](c1ccc(Oc2ccc(C(=O)O)cc2)cc1Cl)[C@](O)(c1ccc(=O)[nH]c1)C(F)(F)F` (relative stereo) [Example 175, 4-{3-Chloro-4-[3,3,3-trifluoro-2-hydroxy-1-methyl-2-(6-oxo-1,6-dihydro-pyridin-3-yl)-propyl]-phenoxy}-benzoic acid], for which the negative logarithm of the Ki (pKi) was 7.12. Under `C[C@@H](c1ccc(-c2ccc(C(=O)O)c(Cl)c2)cc1Cl)[C@](O)(c1ccc(=O)[nH]c1)C(F)(F)F` (relative stereo) [Example 179, 3,3′-Dichloro-4′-[3,3,3-trifluoro-2-hydroxy-1-methyl-2-(6-oxo-1,6-dihydro-pyridin-3-yl)-propyl]-biphenyl-4-carboxylic acid] stands 6.30; under `C[C@@H](c1ccc(-c2ccc(CC(=O)O)cc2)cc1Cl)[C@](O)(c1ccc(=O)[nH]c1)C(F)(F)F` (relative stereo) [Example 182, {3′-Chloro-4′-[3,3,3-trifluoro-2-hydroxy-1-methyl-2-(6-oxo-1,6-dihydro-pyridin-3-yl)-propyl]-biphenyl-4-yl}-acetic acid], 6.38.

Source of the values: patent US8138189B2, “Substituted benzene compounds as modulators of the glucocorticoid receptor” (Hoffman-La Roche Inc., priority 2009, dated 2012).
